Assay results as given in patent US20230203023A1, “SALT AND CRYSTAL FORMS OF GLP-1R AGONISTS AND USES THEREOF” (QILU REGOR THERAPEUTICS INC., priority 2020, published 2023).

What was measured:
[1] = Kinetic solubility test in water and bio-relevant media (SGF, FaSSIF, FeSSIF); format: physicochemical; details: for S: solubility: 37° C.; for Purity (%), area percentage of API: for reference only (suspensions); for FC: form change: residual solids by XRPD; for pH: supernatant
Description: (§1) Weigh 100 mg of sodium chloride and 50 mg of Triton X-100 into a 50-mL volumetric flask. Add appropriate volume of purified water and sonicate until all solids are completely dissolved. Add about 68 μL of 12 M HCl and sufficient purified water closely to the target volume and adjust to pH 1.8. Dilute to volume with purified water, mix well and check the pH with a pH meter.
as §1, with “170” for “100”, “phosphate monobasic, 21” for “chloride and 50”, “sodium hydroxide and 310 mg of sodium chloride, 110 mg of SIF powder” for “Triton X-100”, “Add” for “Add about 68 μL of 12 M HCl and”, “6.5.” for “1.8.”
Weigh 0.41 mL of glacial acetic acid, 202 mg of sodium hydroxide and 594 mg of sodium chloride, 560 mg of SIF powder into a 50-mL volumetric flask. Add appropriate volume of purified water to dissolve the solids. Then add sufficient purified water closely to the target volume and adjust to pH 5.0. Dilute to volume with purified water, mix well and check the pH with a pH meter.
Kinetic solubility was evaluated in water and three bio-relevant media (SGF, FaSSIF and FeSSIF) for 1/4/24 hours. 3-4 mg of solids were suspended in 3 mL each medium (solid loading: 1 mg/mL, calculated using freeform) to get a suspension, followed by rolling (25 rpm) at 37° C. for 1/4/24 hours. At each time point, ˜1.0 mL of suspension was sampled out for centrifugation (12000 rpm, 2 min) and filtration through 0.45 μm PTFE membrane to obtain supernatant for HPLC and pH tests, the residual solids were analyzed by XRPD.
Kinetic solubility was evaluated for 1:1 Compound II Citrate Salt (Form A), 1:1 Compound II Tris Salt (Form B), and freeform of Compound II in water and three bio-relevant media (SGF, FaSSIF and FeSSIF) for 1/4/24 hours. 3-4 mg of solids were suspended in 3 mL each medium (solid loading:
1 mg/mL, calculated using freeform) to get a suspension, followed by rolling (25 rpm) at 37° C. for 1/4/24 hours. At each time point, ˜1.0 mL of suspension was sampled out for centrifugation (12000 rpm, 2 min) and filtration through 0.45 μm PTFE membrane to obtain supernatant for HPLC and pH tests, the residual solids were analyzed by XRPD. […] The purity results were for reference only since the samples were all suspensions.

[2] = Solid stability evaluation (I/II), XRPD and HPLC; format: physicochemical; details: for Observation / Purity (area %): listed as Freeform
Description: To evaluate the physical and chemical stability of 1:1 Compound I Tris Salt (Form A) and amorphous free form, samples were stored under the conditions of 60° C. for 1 day and 25° C./60% RH or 40° C./75% RH for 1 week, respectively.
To evaluate the physical and chemical stability of 1:1 Compound II Citrate Salt (Form A), 1:1 Compound II Tris Salt (Form B) and freeform, samples were stored under the conditions of 60° C. for 1 day and 25° C./60% RH or 40° C./75% RH for 1 week, respectively.

[3] = FaSSIF, 1 hour, listed as Freeform
[4] = FaSSIF, 4 hours, listed as Freeform
[5] = FaSSIF, 24 hours, listed as Freeform
[6] = FeSSIF, 1 hour, listed as Freeform
[7] = FeSSIF, 4 hours, listed as Freeform
[8] = FeSSIF, 24 hours, listed as Freeform
[9] = H2O, 1 hour, listed as Freeform
[10] = H2O, 4 hours, listed as Freeform
[11] = H2O, 24 hours, listed as Freeform
[12] = SGF, 1 hour, listed as Freeform
[13] = SGF, 4 hours, listed as Freeform
[14] = SGF, 24 hours, listed as Freeform

- S: solubility [1, 3]: 20 µg/mL
- Purity (%), area percentage of API [1, 3]: 85.92%
- S: solubility [1, 4]: 20 µg/mL
- Purity (%), area percentage of API [1, 4]: 72.84%
- S: solubility [1, 5]: 20 µg/mL
- Purity (%), area percentage of API [1, 5]: 66.76%
- S: solubility [1, 6]: 30 µg/mL
- Purity (%), area percentage of API [1, 6]: 71.16%
- S: solubility [1, 7]: 20 µg/mL
- Purity (%), area percentage of API [1, 7]: 47.29%
- S: solubility [1, 8]: 40 µg/mL
- Purity (%), area percentage of API [1, 8]: 37.65%
- S: solubility [1, 9]: 30 µg/mL
- Purity (%), area percentage of API [1, 9]: 93.84%
- S: solubility [1, 10]: 30 µg/mL
- Purity (%), area percentage of API [1, 10]: 86.44%
- S: solubility [1, 11]: 40 µg/mL
- Purity (%), area percentage of API [1, 11]: 89.76%
- S: solubility [1, 12]: 200 µg/mL
- Purity (%), area percentage of API [1, 12]: 94.17%
- S: solubility [1, 13]: 200 µg/mL
- Purity (%), area percentage of API [1, 13]: 81.32%
- S: solubility [1, 14]: 100 µg/mL
- Purity (%), area percentage of API [1, 14]: 76.04%
- FC: form change ([1]; FaSSIF, 1 hour): No
- FC: form change [1, 4]: No
- FC: form change ([1]; FaSSIF, 24 hours): Yes
- FC: form change ([1]; FeSSIF, 1 hour): No
- FC: form change ([1]; FeSSIF, 4 hours): Yes
- FC: form change [1, 8]: No
- FC: form change ([1]; H2O, 1 hour): No
- FC: form change [1, 10]: No
- FC: form change [1, 11]: No
- FC: form change [1, 12]: No
- FC: form change ([1]; SGF, 4 hours): Yes
- FC: form change ([1]; SGF, 24 hours): Yes
- pH [1, 3]: 6.5
- pH [1, 4]: 6.5
- pH [1, 5]: 6.4
- pH [1, 6]: 5.0
- pH [1, 7]: 5.1
- pH [1, 8]: 5.0
- pH [1, 9]: 6.6
- pH [1, 10]: 7.0
- pH [1, 11]: 7.3
- pH ([1]; SGF, 1 hour): 1.9
- pH [1, 13]: 1.9
- pH [1, 14]: 1.8
- Form change ([2]; 25° C./60% RH (open), 1 week): No
- Observation ([2]; 25° C./60% RH (open), 1 week): Yellow
- Purity (area %) ([2]; 25° C./60% RH (open), 1 week): 94.58 area %
- Form change ([2]; 40° C./75% RH (open), 1 week): No
- Observation ([2]; 40° C./75% RH (open), 1 week): Yellow
- Purity (area %) ([2]; 40° C./75% RH (open), 1 week): 92.86 area %
- Form change ([2]; 60° C. (capped), 1 day): No
- Observation ([2]; 60° C. (capped), 1 day): Yellow
- Purity (area %) ([2]; 60° C. (capped), 1 day): 88.94 area %
- Form change ([2]; Initial): No
- Observation ([2]; Initial): Yellow
- Purity (area %) ([2]; Initial): 95.27 area %
Compound: N#Cc1ccc(COc2cccc(C3=CCN(Cc4nc5ccc(C(=O)O)cc5n4C[C@@H]4CCO4)CC3)n2)c(F)c1 [Compound II, (S)-2-((6-((4-cyano-2-fluorobenzyl)oxy)-3′,6′-dihydro-[2,4′-bipyridin]-1′(2′H)-yl)methyl)-1-(oxetan-2-ylmethyl)-1H-benzo[d]imidazole-6-carboxylic acid]
